The text below walks through data of patent US20110065706A1, “Therapeutic Agents 812” (AstraZeneca AB, priority 2009, published 2011).

As usually defined, the EC50 is the concentration at which the effect is half-maximal.

One test concerns the target T1, human GPR119 (Homo sapiens, UniProt Q8TDV5).
T1 construct: expressed in transfected cells; host or cells: HEK 293s
T1 sequence (Q8TDV5 1-335): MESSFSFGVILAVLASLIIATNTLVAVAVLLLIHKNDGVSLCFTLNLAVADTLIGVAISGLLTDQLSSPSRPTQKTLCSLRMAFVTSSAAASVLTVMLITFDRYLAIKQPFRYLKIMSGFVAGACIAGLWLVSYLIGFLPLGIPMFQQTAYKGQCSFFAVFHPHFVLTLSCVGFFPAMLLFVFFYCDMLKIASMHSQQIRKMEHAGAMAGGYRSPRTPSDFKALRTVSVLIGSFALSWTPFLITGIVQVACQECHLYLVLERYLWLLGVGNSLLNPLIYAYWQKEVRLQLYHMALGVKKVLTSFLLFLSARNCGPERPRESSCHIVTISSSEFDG
The experiment in a line: Cyclic AMP (HTRF cAMP) assay for human GPR119, Method A. Type of test: cell-based. To be noted: HEK293S, 0.75 h; Method A; HEK 293s cells over-expressing human GPR119; percent effect at top concentration 30 μM relative to maximum (50 μM Oleoylethanolamide) and minimum (1% DMSO) controls. For orientation: Time-resolved FRET reads energy transfer from a long-lived donor to a nearby acceptor.
`CC(C)(C)OC(=O)N1CCN(c2ncc(OCc3ccc(C(=O)NCCO)cc3)cn2)CC1` [Example 44, tert-butyl 4-(5-(4-(2-hydroxyethyl-carbamoyl)benz-yloxy)pyrimi-din-2-yl)piperazine-1-carboxylate]: the activation at 30 µM was determined as 61%. As for `Cc1cc(COc2cnc(N3CCN(C(=O)OC(C)(C)C)CC3)nc2)ccc1C(=O)NC(C)C` [Example 54, Tert-butyl 4-(5-(4-(isopropylcarbamoyl)-3-methylbenzyloxy)pyrimidin-2-yl)piperazine-1-carboxylate], the activation at 30 µM is 51%. As for `C[C@@H]1CN(C(=O)OC2(C)CC2)CCN1c1ncc(OCc2ccc(S(C)(=O)=O)cc2)cn1` [Example 61, (R)-1-methylcyclo-propyl 3-methyl-4-(5-(4-(methylsulfonyl)benzyloxy)pyrimidin-2-yl)piperazine-1-carboxylate], the activation at 30 µM was determined as 91%. For `CC(C)C(=O)Nc1ncc(COc2cnc(N3CCN(C(=O)OC(C)(C)C)CC3)nc2)cn1` [Example 94, Tert-butyl 4-(5-((2-isobutyramidopyrimidin-5-yl)methoxy)pyrimidin-2-yl)piperazine-1-carboxylate], the activation at 30 µM stood at 44%. The compound `C[C@@H]1CN(C(=O)OC2(C)COC2)CCN1c1ncc(OCc2ccc(S(C)(=O)=O)cc2)cn1` [Example 80, (R)-3-methyloxetan-3-yl 3-methyl-4-(5-(4-(methylsulfonyl)benzyloxy)pyrimi-din-2-yl)piperazine-1-carboxylate] came in with an activation at 30 µM of 41%. Take `Cc1cc(COc2cnc(N3CCN(C(=O)OC(C)(C)C)CC3)nc2)ccc1S(C)(=O)=O` [Example 37, tert-butyl 4-(5-(3-methyl-4-(methylsulf-onyl)benzyl-oxy)pyrimi-din-2-yl)piperazine-1-carboxylate]: the activation at 30 µM came to 52%. As to `CC(C)(C)OC(=O)N1CCN(c2ncc(OCc3ccncn3)cn2)CC1` [Example 9, tert-butyl 4-(5-(pyrimidin-4-ylmethoxy)pyrimidin-2-yl)piperazine-1-carboxylate], the activation at 30 µM was 61%. The compound `CN1CCN(C(=O)c2ccc(COc3cnc(N4CCN(C(=O)OC(C)(C)C)CC4)nc3)cc2)CC1` [Example 51, tert-butyl 4-(5-(4-(4-methylpiper-azine-1-carbonyl)benz-yloxy)pyrimi-din-2-yl)piperazine-1-carboxylate] displayed an activation at 30 µM of 42%.

With `CS(=O)(=O)c1ccc(COc2cnc(N3CCN(C(=O)OC4CCC4)CC3)nc2)cc1` [Example 63, Cyclobutyl 4-(5-(4-(methylsulfonyl)benzyloxy)pyrimidin-2-yl)piperazine-1-carboxylate], the activation at 30 µM was determined as 52%. Compound `C[C@@H]1CN(C(=O)OC(C)(C)C)CCN1c1ncc(OCc2ccncc2)cn1` [Example 19, (R)-Tert-butyl 3-methyl-4-(5-(pyridin-4-ylmethoxy)pyrimidin-2-yl)piperazine-1-carboxylate] returned an activation at 30 µM of 68%.

Compound `CC(C)(C)OC(=O)N1C[C@@H]2CC[C@H]1CN2c1ncc(OCc2ccc(S(C)(=O)=O)cc2)cn1` [Example 29, (1S,4S)-tert-butyl 5-(5-(4-(methylsulfonyl)benzyloxy)pyrimidin-2-yl)-2,5-diazabicyclo [2.2.2]octane-2-carboxylate] returned an activation at 30 µM of 36%. For `Cc1cc(S(C)(=O)=O)ccc1COc1cnc(N2CCN(C(=O)OC(C)(C)C)CC2)nc1` [Example 33, tert-butyl 4-(5-(2-methyl-4-(methylsulfonyl)benzyloxy)pyrimidin-2-yl)piperazine-1-carboxylate], the activation at 30 µM amounted to 82%. Compound `COc1cc(COc2cnc(N3CCN(C(=O)OC(C)(C)C)CC3)nc2)c(F)cn1` [Example 8, tert-butyl 4-(5-((5-fluoro-2-methoxy-pyridin-4-yl)methoxy)pyrimidin-2-yl)piperazine-1-carboxylate] returned an activation at 30 µM of 26%. In turn, `CC(C)C(=O)Nc1ccc(COc2cnc(N3CCN(C(=O)OC(C)(C)C)CC3)nc2)cc1` [Example 14, tert-butyl 4-(5-(4-isobutyramido-benzyloxy)pyrimidin-2-yl)piperazine-1-carboxylate] showed an activation at 30 µM of 78%.

In turn, `CN(C)CCNC(=O)c1ccc(COc2cnc(N3CCN(C(=O)OC(C)(C)C)CC3)nc2)cc1` [Example 48, tert-butyl 4-(5-(4-(2-(dimethylamino)ethylcarba-moyl)benzyloxy)pyrimidin-2-yl)piperazine-1-carboxylate] displayed an activation at 30 µM of 26%. The same measure, in the same setting: next, `C[C@@H]1CN(C(=O)OC2(C(F)(F)F)COC2)CCN1c1ncc(OCc2ccncc2C#N)cn1` [Example 111, (R)-3-(trifluoromcthyl) oxetan-3-yl 4-(5-((3-cyanopyridin-4-yl)mcthoxy)pyrimidin-2-yl)-3-mcthylpipcrazine-1-carboxylate]: 171%.

On to `CC1(OC(=O)N2CCN(c3ncc(OCc4ccc(S(C)(=O)=O)cc4)cn3)CC2)CC1` [Example 60, 1-Methylcyclopropyl 4-(5-(4-(methylsulfonyl)benzyloxy)pyrimidin-2-yl)piperazine-1-carboxylate], for which the activation at 30 µM was 90%. For the compound `CC1(OC(=O)N2CCN(c3ncc(OCc4ccc(S(C)(=O)=O)cc4)cn3)CC2)COC1` [Example 79, 3-Methyloxetan-3-yl 4-(5-(4-(methylsulfonyl)benzyloxy)pyrimidin-2-yl)piperazine-1-carboxylate], the activation at 30 µM amounted to 37%. `CC(C)OC(=O)N1CCN(c2ncc(OCc3ccc(S(C)(=O)=O)cc3)cn2)[C@H](C)C1` [Example 57, (R)-isopropyl 3-methyl-4-(5-(4-(methylsulfonyl)benzyloxy)pyrimidin-2-yl)piperazine-1-carboxylate] displayed an activation at 30 µM of 69%. `C[C@@H]1CN(C(=O)OC2CCOC2)CCN1c1ncc(OCc2ccc(S(C)(=O)=O)cc2)cn1` (stereo partly drawn) [Example 78, (3R)-Tetrahydrofuran-3-yl 3-methyl-4-(5-(4-(methylsulfonyl)benzyloxy)pyrimidin-2-yl)piperazine-1-carboxylate] displayed an activation at 30 µM of 8%. On the same count and under the same terms, next, `C[C@@H]1CN(c2noc(C3(C)COC3)n2)CCN1c1ncc(OCc2ccncc2C#N)cn1` [Example 107, (R)-4-((2-(2-methyl-4-(5-(3-methyloxetan-3-yl)-1,2,4-oxadiazol-3-yl)piperazin-1-yl)pyrimidin-5-yloxy)methyl)nicotinonitrile]: 188%; `N#Cc1cnccc1COc1cnc(N2CCN(c3ncc(F)cn3)CC2)nc1` [Example 40, 4-((2-(4-(5-Fluoropyrimidin-2-yl)piperazin-1-yl)pyrimidin-5-yloxy)methyl)nicotinonitrile]: 90%. `C[C@@H]1CN(C(=O)OC(C)(C)C)CCN1c1ncc(OCc2ccc(C(=O)N(C)CCO)cc2)cn1` [Example 21, (R)-tert-butyl 4-(5-(4-((2-hydroxyethyl) (methyl)carba-moyl)benzyl-oxy)pyrimidin-2-yl)-3-methyl-piperazine-1-carboxylate] displayed an activation at 30 µM of 100%. Same read-out and setting: the figure for `CC(C)(C)NC(=O)c1ccc(COc2cnc(N3CCN(C(=O)OC(C)(C)C)CC3)nc2)cc1` [Example 47, tert-butyl 4-(5-(4-(tert-butylcarbamoyl)benzyloxy)pyrimidin-2-yl)piperazine-1-carboxylate] is 109%; for `C[C@@H]1CN(C(=O)O[C@H](C)C(F)(F)F)CCN1c1ncc(OCc2ccncc2C#N)cn1` [Example 103, (R)—((R)-1,1,1-trifluoropropan-2-yl) 4-(5-((3-cyanopyridin-4-yl)methoxy)pyrimidin-2-yl)-3-methylpiperazine-1-carboxylate] it is 244%; for `C[S+]([O-])c1ccc(COc2cnc(N3CCN(C(=O)OC(C)(C)C)CC3)nc2)cc1` (centres unmarked) [Example 93, Tert-butyl 4-(5-(4-(methylsulfinyl)benzyloxy)pyrimidin-2-yl)piperazine-1-carboxylate] it is 82%.

Still in this test, the particulars now being: Method A; HEK 293s cells over-expressing human GPR119; midpoint of dose response curve; selected examples.
For the compound `Cc1cc(COc2cnc(N3CCN(C(=O)OC(C)(C)C)CC3)nc2)ccc1S(C)(=O)=O` [Example 37, tert-butyl 4-(5-(3-methyl-4-(methylsulf-onyl)benzyl-oxy)pyrimi-din-2-yl)piperazine-1-carboxylate], the EC50 came to 20 nM. This lies in the double-digit nanomolar range. In the case of `C[C@@H]1CN(C(=O)OC(C)(C)C)CCN1c1ncc(OCc2ccc(C(=O)N(C)CCO)cc2)cn1` [Example 21, (R)-tert-butyl 4-(5-(4-((2-hydroxyethyl) (methyl)carba-moyl)benzyl-oxy)pyrimidin-2-yl)-3-methyl-piperazine-1-carboxylate], it took 202 nM to reach a half-maximal effect (EC50).

Staying with this test, now noted: human GPR119 cAMP assay; top concentration 30 μM.
For the compound `CS(=O)(=O)c1ccc(COc2cnc(N3CCN(C(=O)OC4CCOC4)CC3)nc2)cc1` (centres unmarked) [tetrahydrofuran-3-yl 4-[5-[(4-methylsulfonylphenyl)methoxy]pyrimidin-2-yl]piperazine-1-carboxylate], the “significant activity at a top concentration of 30 μM” value (from here on “significant activity”) is recorded as “did not show significant activity”. Take `N#Cc1cnccc1COc1cnc(N2CCN(C(=O)OC3CCOCC3)CC2)nc1` [tetrahydropyran-4-yl 4-[5-[3-cyano-4-pyridyl)methoxy]pyrimidin-2-yl]piperazine-1-carboxylate]: the “significant activity” value is listed as “did not show significant activity”. Consider `C[C@@H]1CN(C(=O)OC2CCOCC2)CCN1c1ncc(OCc2ccc(S(C)(=O)=O)cc2)cn1` [tetrahydropyran-4-yl (3R)-3-methyl-4-[5-[(4-methylsulfonylphenyl)methoxy]pyrimidin-2-yl]piperazine-1-carboxylate], for which the “significant activity” value was “did not show significant activity”. In the case of `CC(=O)Nc1ncc(COc2cnc(N3CCN(C(=O)OC(C)(C)C)CC3)nc2)cn1` [tert-butyl 4-[5-[(2-acetamidopyrimidin-5-yl)methoxy]pyrimidin-2-yl]piperazine-1-carboxylate], the “significant activity” value is reported as “did not show significant activity”.
